The text below walks through data of the NIST ThermoML archive (doi:10.1021/je4007184).

As a reminder, the mass density is the mass of a sample divided by its volume. As a reminder, the refractive index is the speed of light in vacuum divided by its phase velocity in the sample.

SMILES strings stand for the structures. ± gives the expanded uncertainty stated by the source.

The conditions of data set [1]: 298.15 K; 101.33 kPa; Liquid; Pycnometric method.
Data set [2] is described as follows: Boiling temperature at pressure P. Conditions: 101 kPa; Liquid; Ebulliometric method (Recirculating still).
Data set [3] in a line: refractive index (Na D-line) (dimensionless). Conditions: 298.15 K; 101.33 kPa; Liquid; Standard Abbe refractometry.

Consider `CC(C)CCO` [3-methylbutan-1-ol], for which, in data set [1], the mass density is reported as 811.04 ± 0.6 kg/m3. Also, in data set [2], the “Boiling temperature at pressure P” value was 131.1 ± 0.4 °C. For the same compound, in data set [3], the refractive index is recorded as 1.4155 ± 0.0005.

On to `CCCCCO` [pentan-1-ol], for which the mass density in data set [1] was 810.12 ± 0.6 kg/m3. In data set [2], the “Boiling temperature at pressure P” value was determined as 137.8 ± 0.4 °C. Moreover, the refractive index in data set [3] stood at 1.4078 ± 0.0005.

With `CCCC(C)O` (configuration not stated) [pentan-2-ol], the mass density in data set [1] was 806.57 ± 0.61 kg/m3. Moreover, in data set [2], the “Boiling temperature at pressure P” value amounted to 119.1 ± 0.4 °C. Also, the refractive index in data set [3] came out at 1.4048 ± 0.0005.

Turning to `CCCOC(C)=O` [propyl ethanoate], the mass density in data set [1] is given as 882.8 ± 0.68 kg/m3. For the same compound, the “Boiling temperature at pressure P” value in data set [2] turned out to be 101.5 ± 0.4 °C. Further, the refractive index in data set [3] worked out at 1.3821 ± 0.0005.
